# Columns and labels:
# [1] = Cytotoxicity in FL cells (experiment repeated without the virus); settings: human
# Description: (§1) When the experiment was started, the medium was removed from the dishes and a suspension (1 ml) containing Herpes simplex virus at the predetermined concentration in the medium was added to the dishes. The dishes were incubated in an incubator under the humidified air containing 5% CO₂ at 36°C for one hour to allow the adsorption of the viruses. Then the medium was removed and a fresh medium containing the test compounds was added. After 24 hours, the number of polykaryotic giant cells in each dish was counted and the minimum concentration showing no polykaryotic giant cells was taken as the antivirally active concentration to the herpes virus. The experiment was repeated without the virus and the minimum concentration at which cells died was taken as the cytotoxic concentration.
# Herpes simplex virus = experiment: Herpes virus inhibition experiment in FL cells (polykaryotic giant cell count); format: cell-based; settings: for minimal effective concentration: minimum concentration showing no polykaryotic giant cells after 24 hours, FL cells infected with Herpes simplex virus, read-out: Antivial activity
# Description: as §1
# in vitro = settings: human, fl cells
# Description: as §1
Compound,MCC [1] [µg/mL],minimal effective concentration (Herpes simplex virus) [µg/mL],MCC at 24 h (in vitro) [µg/mL],Antivial activity (Herpes simplex virus) [ng/mL]
"C[C@H]1O[C@@H](O[C@H]2[C@@H](O)C[C@H](O[C@H]3[C@@H](O)C[C@H](O[C@H]4CC[C@@]5(C)[C@H](CC[C@@H]6[C@@H]5CC[C@]5(C)[C@@H](C7=CC(=O)OC7)CC[C@]65O)C4)O[C@@H]3C)O[C@@H]2C)C[C@H](O)[C@@H]1O [Compound 1, 3-[(O-2,6-dideoxy-β-D-ribo-hexopranoxyl-(1→4)-O-2,6-dideoxy-β-D-ribo-hexopyranosyl-(1→4)-2,6-dideoxy-β-D-ribo-hexopyranosyl)-oxy]-14-hydroxycard-(20)22-enolide]",0.48,0.025,–,–
"C[C@H]1O[C@@H](O[C@H]2[C@@H](O)C[C@H](O[C@H]3[C@@H](O)C[C@H](O[C@H]4CC[C@@]5(C)[C@H](CC[C@@H]6[C@@H]5C[C@@H](O)[C@]5(C)[C@@H](C7=CC(=O)OC7)CC[C@]65O)C4)O[C@@H]3C)O[C@@H]2C)C[C@H](O)[C@@H]1O [Compound 2, 3-[(O-2,6-dideoxy-β-D-ribo-hexopranoxyl-(1→4)-O-2,6-dideoxy-β-D-ribo-hexopyranosyl-(1→4)-2,6-dideoxy-β-D-ribo-hexopyranosyl)-oxy]-12,14-dihydroxycard-(20)22-enolide]",0.48,0.05,–,–
"C[C@@H]1O[C@@H](O[C@H]2C[C@@H](O)[C@]3(CO)[C@H]4[C@H](O)C[C@]5(C)[C@@H](C6=CC(=O)OC6)CC[C@]5(O)[C@@H]4CC[C@]3(O)C2)[C@H](O)[C@H](O)[C@H]1O [Compound 4, 3-[(6-deoxy-α-L-mannopyranosyl)oxy]-1,5,11α, 14,19-pentahydroxycard-20(22) enolide]",0.46,0.04,–,–
C[C@H]1O[C@@H](O[C@H]2CC[C@]3(C=O)[C@H]4CC[C@]5(C)[C@@H](C6=CC(=O)OC6)CC[C@]5(O)[C@@H]4CC[C@]3(O)C2)C[C@H](O)[C@@H]1O [Compound 5],0.46,0.03,–,–
"C[C@@H]1O[C@@H](O[C@H]2CC[C@]3(C=O)[C@H]4CC[C@]5(C)[C@@H](C6=CC(=O)OC6)CC[C@]5(O)[C@@H]4CC[C@]3(O)C2)[C@H](O)[C@H](O)[C@H]1O [Compound 6, 3β-[(6-deoxy-α-L-mannopyranosyl)oxy]-5,14-dihydroxy-19-oxo-5β-card-20(22) enolide]",0.38,0.025,–,–
"C[C@]12CC[C@H](O)C[C@H]1CC[C@@H]1[C@@H]2CC[C@]2(C)[C@@H](c3ccc(=O)oc3)CC[C@]12O [Compound 7, 3,14-dihydroxybufa-20,22-dienolide]",–,–,0.5,8

# Source: patent publication EP0442744A2, “Treatment of viral disease by glycosides” (TSUMURA & CO., priority 1990, dated 1991)
